These results are taken from patent US10322107B2, “N-methyl-N-(1-phenyl-2-(1-pyrrolidinyl)ethyl)-2-aminophenylacetamide derivatives agonists for the kappa opioid receptor” (Nektar Therapeutics, priority 2014, dated 2019).

The target of assay [1] is recombinant human kappa (KOR) opioid receptor (Homo sapiens, UniProt P41145). Put plainly: Competitive radioligand binding at KOR ([3H]diprenorphine), CHO-K1 membranes.
Assay [2] addresses T1, recombinant human mu (MOR) opioid receptor (Homo sapiens, UniProt P35372).
T1 construct: expressed in transfected cells; host or cells: CHO-K1 cells (membranes)
In words: Competitive radioligand binding at MOR ([3H]naloxone), single concentration, CHO-K1 membranes. The conditions noted are these: 10 μM test compound; percent inhibition of specific [3H]naloxone (4 nM) binding; read-out: Mu Opioid Receptor Mu Receptor Inhibition % inhib @ 10 uM. On the procedure:
The binding affinities of certain compounds of the present invention were evaluated using radioligand binding assays in membranes prepared from CHO-K1 cells expressing recombinant human kappa (KOR) or mu (MOR) opioid receptors.
Competition binding experiments were conducted by incubating membrane protein to equilibrium in triplicate in the presence of a fixed concentration of radioligand and increasing concentrations of test compound for evaluation of binding to KOR or single concentration (10 μM) of test compound for evaluation of binding to MOR in 101 μL final volume. The radioligands used were specific for each receptor type, and the assay conditions are described in Table 1. Following incubations, the membranes were rapidly filtered through GF/B filter plate (presoaked with 0.5% polyethyleneimine), washed five times with cold 50 mM Tris-HCl, pH 7.5, and the bound radioactivity was then measured by liquid scintillation counting. Non-specific binding was measured in the presence of excess ligand; this value was subtracted from the total binding to yield the specific binding at each test concentration.
Ki (affinity of test compound) was obtained using the Cheng Prusoff correction using experimental Kd (affinity of radioligand) values that were previously determined under these assay conditions. For MOR binding, compounds were tested at one concentration, 10 μM, to evaluate its ability to inhibit specific radioligand binding. The values are expressed as percent inhibition of specific binding and greater than 50% inhibition of binding was considered to be significant.

The target in assay [3] is T2, KOR (kappa opioid receptor) (Homo sapiens, UniProt P41145).
T2 construct: expressed in transfected cells
Put plainly: Inhibition of cAMP accumulation in forskolin-stimulated CHO-K1 cells stably expressing KOR. Format: cell-based.

Where two headings read alike, the source gives them in different places.

Consider `CN([C@H](CN1CC[C@H](O)C1)c1ccc(OCCO)cc1)S(=O)(=O)Cc1ccc(C(F)(F)F)cc1` [Example 23, N-{(18)-1-[4-(2-Hydroxyethoxy)phenyl]-2-[(38)-3-hydroxypyrrolidin-1-yl]ethyl}-N-methyl-1-[4-(trifluoromethyl)phenyl]methanesulfonamide], for which, in assay [1], the IC50 is 1080 nM and the Ki turned out to be 141 nM. The inhibition at 10 µM in assay [2] was -2%. In assay [3], this compound returned an EC50 of 53.6 nM.

With `CN(C(=O)Cc1ccc(Cl)c(Cl)c1)[C@H](CN1CC(O)C1)c1ccc(OCCO)cc1` [Example 24, (S)-2-(3,4-dichlorophenyl)-N-(2-(3-hydroxyazetidin-1-yl)-1-(4-(2-hydroxyethoxy)phenyl)ethyl)-N-methylacetamide], in assay [1] (Cheng Prusoff correction using experimental Kd of radioligand, read-out: Kappa Opioid Receptor Ki), the Ki amounted to 2.71 nM. For the same compound, the IC50 in assay [1] (read-out: Kappa Opioid Receptor IC50) stood at 20.8 nM. Also, in assay [2], the inhibition at 10 µM stood at 40.1%. Besides, a half-maximal effect in assay [3] (EC50) was put at 0.78 nM.
